This is an account of results in ChEMBL document CHEMBL1201862, “PubChem BioAssay data set” (2004).

Holding throughout (experiment): DTP human tumour cell line panel, 48 h
Experiment [1] deals with 786-0.
For experiment [2], the system named is A549.
Experiment [3] has as its system CAKI-1.
The test system of experiment [4] is COLO 205.
Experiment [5] relates to HL-60.
Experiment [6] relates to K562.
Experiment [7] concerns NCI-H522.
Experiment [8] relates to OVCAR-3.
Experiment [9] relates to OVCAR-5.
In experiment [10] the test system is OVCAR-8.
Experiment [11] deals with SK-MEL-28.
Experiment [12] concerns SNB-19.
The subject of experiment [13] is SR.
Experiment [14] concerns TK-10.
In experiment [15] the test system is U-251.
The subject of experiment [16] is NCI-H226.
Experiment [17] deals with NCI-H460.
The subject of experiment [18] is A498.

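Tested at 5 concentrations; 48 h exposure; 96-well plates; endpoints linearly interpolated, else capped at highest concentration. Abbreviation: GI50, concentration required for 50% inhibition of growth.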 Calls of active or inactive are those of the source. No stated cut-off is given here; in the data, active = GI50 up to about 1.1 µM and inactive = higher.

In the case of `Cc1nn2c3c(nnc2c1C#N)C(=O)NN=C(N)S3`, the GI50 in [1], in experiment [2], in experiment [3], in experiment [4], in [5] and in experiment [6] was > 100 µM (inactive) throughout. The GI50 in [7], in [8], in [9], in [10], in [11] and in experiment [12] was > 100 µM (inactive) in each case. In addition, the GI50 in [13], in experiment [14] and in experiment [15] was > 100 µM (inactive) in each case.

With `FC(F)(F)c1nc(-c2ccccc2Cl)[nH]c1C(F)(F)F`, the GI50 (commonly the concentration giving 50% growth inhibition) in [1] was 1.08 µM (active); in [2], 0.7 µM (active); in [3], 0.679 µM (active); in [4] it was 0.542 µM (active); in experiment [5], 0.406 µM (active); in experiment [6], 1.03 µM (active). Also, the GI50 in [16] was 0.61 µM (active); in experiment [17], 0.859 µM (active); in experiment [8], 0.223 µM (active); in experiment [9] it was 0.746 µM (active); in experiment [10], 1.11 µM (active); in experiment [11], 1.21 µM (inactive). Further, the GI50 was 0.571 µM (active) in experiment [12], 0.456 µM (active) in [13], 1.13 µM (inactive) in experiment [14] and 0.318 µM (active) in [15].

For the molecule `O=c1nc(NC(c2ccccc2)(c2ccccc2)c2ccccc2)ccn1CCNCCn1ccc(NC(c2ccccc2)(c2ccccc2)c2ccccc2)nc1=O`, the GI50 was 14.1 µM (inactive) in experiment [1]; 27 µM (inactive) in [18]; 26.2 µM (inactive) in experiment [2]; 14.8 µM (inactive) in [3]; 10.7 µM (inactive) in experiment [4]; 2.41 µM (inactive) in experiment [5]. The GI50 in [6] was 3.46 µM (inactive); in [16], 14.5 µM (inactive); in [17] it was 11.8 µM (inactive); in experiment [7], 4.66 µM (inactive); in experiment [8], 11.9 µM (inactive); in [9], 31 µM (inactive). Also, the GI50 in experiment [10] was 10.7 µM (inactive); in [11], 6.07 µM (inactive); in experiment [12] it was 9.27 µM (inactive); in [14] it was 26.9 µM (inactive); in experiment [15] it was 4.33 µM (inactive).

As to `C1=C(c2ccccc2)CN(c2ccccc2)OC1`, the GI50 in [1] was > 100 µM (inactive); in experiment [2], 85.9 µM (inactive); in experiment [3] it was 56.5 µM (inactive); in experiment [4], > 100 µM (inactive); in experiment [5], 54.8 µM (inactive); in experiment [6], 77.4 µM (inactive). Moreover, the GI50 in experiment [16] was > 100 µM (inactive); in experiment [17], > 100 µM (inactive); in experiment [7], 18.6 µM (inactive); in [8], > 100 µM (inactive); in [9], 26.8 µM (inactive); in [11], 79.8 µM (inactive). In addition, the GI50 was > 100 µM (inactive) in experiment [12], 55.3 µM (inactive) in experiment [13], > 100 µM (inactive) in experiment [14] and > 100 µM (inactive) in [15].

For `NC(=O)N/N=C(\CCC(=O)N(Cc1ccccc1)Cc1ccccc1)CC(=O)c1ccc(F)cc1`, the GI50 was 27.2 µM (inactive) in experiment [1]; 37.1 µM (inactive) in experiment [2]; > 100 µM (inactive) in [3]; > 100 µM (inactive) in [4]; > 100 µM (inactive) in [5]; > 100 µM (inactive) in experiment [6]. Further, the GI50 in experiment [16], in experiment [17], in experiment [8], in [9], in experiment [10] and in experiment [11] was > 100 µM (inactive) in each case. The GI50 in [12], in experiment [13], in [14] and in [15] was > 100 µM (inactive) in each case.

`CCOC(=O)/C(Br)=C1\OC(=O)c2ccccc2-c2ccccc21`: the GI50 was 52.8 µM (inactive) in [1]; 40.3 µM (inactive) in experiment [2]; 54.3 µM (inactive) in experiment [3]; 20.8 µM (inactive) in [4]; 13.3 µM (inactive) in experiment [5]; 21.1 µM (inactive) in experiment [6]. Moreover, the GI50 was 23.4 µM (inactive) in experiment [16]; 23 µM (inactive) in [7]; 37.4 µM (inactive) in experiment [8]; > 100 µM (inactive) in experiment [9]; 49.8 µM (inactive) in [10]; 61.4 µM (inactive) in experiment [11]. Further, the figures for the GI50 in [13], in experiment [14] and in experiment [15] were 22 µM (inactive), 60.7 µM (inactive) and 38.5 µM (inactive), respectively.

Take `CCO/C([O-])=C(\C(=O)c1ccc([N+](=O)[O-])cc1)[n+]1c(C)n(C)c2ccccc21`: the GI50 in [1], in [18], in [2], in experiment [3], in experiment [4] and in experiment [5] was > 100 µM (inactive) each time. In addition, the GI50 in experiment [6], in experiment [16], in [17], in experiment [7], in experiment [8] and in experiment [9] was > 100 µM (inactive) in each case. Also, the GI50 in experiment [10], in experiment [11], in experiment [12], in experiment [14] and in experiment [15] was > 100 µM (inactive) throughout.

On to `CN(C)C(=S)/N=c1\ss/c(=N\c2ccccc2)n1-c1ccccc1`, for which the GI50 in experiment [1] is 16.1 µM (inactive); in [18], 34 µM (inactive); in experiment [2], 25.6 µM (inactive); in experiment [3] it was 34.3 µM (inactive); in [5], 24.6 µM (inactive); in experiment [6], 11.2 µM (inactive). The GI50 in experiment [16] is 10.7 µM (inactive); in experiment [7], 1.21 µM (inactive); in experiment [8], 13.7 µM (inactive); in experiment [9], > 100 µM (inactive); in experiment [10], 19.2 µM (inactive); in [11], 29 µM (inactive). For the same molecule, the GI50 in [14] was 25.8 µM (inactive); in [15] it was 24.7 µM (inactive).

Consider `OC1OCC(COc2cc(Cl)c(Cl)cc2Cl)OC1O` (configuration not stated), for which the GI50 in experiment [1] is 77.1 µM (inactive); in [18], 44.5 µM (inactive); in [2], 55 µM (inactive); in experiment [3] it was 33.1 µM (inactive); in [4], 52.1 µM (inactive); in experiment [5], 26.2 µM (inactive). Further, the GI50 was 33.6 µM (inactive) in experiment [6]; 41.5 µM (inactive) in experiment [16]; 44.5 µM (inactive) in [17]; 23.6 µM (inactive) in [7]; 25.5 µM (inactive) in experiment [8]; > 100 µM (inactive) in [9]. Also, the GI50 in experiment [10] was 36.8 µM (inactive); in experiment [11], 65.3 µM (inactive); in experiment [12], 33 µM (inactive); in [14], > 100 µM (inactive); in experiment [15], 36.6 µM (inactive).

Regarding `NNC(=O)CCC(=O)NC1C2CC3CC(C2)CC1C3` (configuration not stated), the GI50 in experiment [1], in experiment [18], in experiment [2], in experiment [3], in [4] and in [5] was > 100 µM (inactive) each time. Also, the GI50 in experiment [6], in experiment [16], in [17], in [7], in experiment [9] and in experiment [10] was > 100 µM (inactive) in each case. In addition, the GI50 in experiment [11], in experiment [12], in experiment [14] and in experiment [15] was > 100 µM (inactive) throughout.

On to `COc1ccc(OCC(=O)O)c2c1CCC(C(C)C)C2=O` (configuration not stated), for which the GI50 in experiment [1], in experiment [18], in experiment [2], in experiment [3], in experiment [4] and in experiment [5] was > 100 µM (inactive) each time. Further, the GI50 in experiment [6], in experiment [17], in [7], in experiment [8], in experiment [9] and in [10] was > 100 µM (inactive) in each case. Besides, the GI50 in [11], in experiment [12], in experiment [14] and in experiment [15] was > 100 µM (inactive) in each case.

For the molecule `CC(=O)OCC1OC(OC2CC3C(C)(C)C(OC(C)=O)CC[C@]3(C)C3CCC45CC4(CC[C@H]5C(C)CC(O)[C@@H](O)C(C)(C)O)[C@]23C)C(O)C(O)C1O` (some centres not stated), the GI50 is 7.82 µM (inactive) in experiment [1]; 7 µM (inactive) in [18]; 8.02 µM (inactive) in [2]; 7.21 µM (inactive) in [3]; 7.8 µM (inactive) in [4]; 3.5 µM (inactive) in [5]. For the same molecule, the GI50 in experiment [6] was 5.55 µM (inactive); in experiment [16], 7.18 µM (inactive); in [17], 8.95 µM (inactive); in experiment [7] it was 1.82 µM (inactive); in experiment [8] it was 7.19 µM (inactive); in experiment [9], 7.66 µM (inactive). For the same molecule, the GI50 in [10] is 7.45 µM (inactive); in experiment [11] it was 7.4 µM (inactive); in [12] it was 7.08 µM (inactive); in [14], 7.76 µM (inactive); in experiment [15] it was 6.28 µM (inactive).
